In patent US20250002463A1, “NEW SALT FORMS OF AMILORIDE AND ITS DERIVATIVES FOR PHARMACEUTICAL USE” (PSOMRI Holding AB, priority 2021, published 2025):

Columns and labels:
[1] = Qualitative solubility of benzamil free base in solvents (aliquot addition); format: physicochemical
[2] = physchem
Protocol: The aqueous solubility of the salts was estimated qualitatively by the solvent aliquot addition method. Aliquots of water up to 500-600 μL were added to approximately 5 mg of salt. The solubility of the free base was also estimated.
The suspensions were let equilibrating at room temperature for 24 h. Afterwards, solids were separated from the liquid phases. The liquid phases were filtered and analyzed by HPLC to determine the solubility. The pH of solutions/mother liquors was also measured.
Suspensions of the two salts were prepared in water with a concentration of 9-10 mg/mL. The mixtures were let equilibrating at RT for 24 h. Afterwards, solids were separated from the liquid phases. The liquid phases were filtered and analyzed by HPLC to determine the solubility. The pH of mother liquors was also measured.

[3] = Polymorphism: solid forms found in salt screen by HT-XRPD; format: physicochemical; conditions: Example 1 salt screen in MeOH, DME, THF
Protocol: The precipitated solids were analyzed by high throughput X-ray powder diffractometry (HT XRPD). Liquid phases (both solutions and mother liquors) were evaporated at ambient conditions and the residual solids were analyzed by HT XRPD.
The salt screen experiments were carried out in methanol (MeOH), 1,2-dimethoxyethane (DME) and tetrahydrofuran (THF).

[4] = Thermal stability of benzamil in solution (UPLC MS); format: physicochemical; conditions: ethanol, ~0.5 mg/mL, 1 h
Protocol: The thermal stability of benzamil was evaluated in three solvent systems: acetonitrile:water 1:1, ethanol, and 0.1 M HCl. Solutions of benzamil (˜0.5 mg/mL) were prepared in the selected solvents and split over 3 vials. The solutions were stirred at room temperature, 50° C. and 80° C. for one hour and then analyzed by UPLC MS. The chemical purity of benzamil measured in the solutions incubated at 50° C. and 80° C. for 1 h was compared to that measured initially in the starting solutions.

qualitative solubility ([1]; 1,2-dimethoxyethane): slightly soluble
effect of temperature on solubility ([1]; THF suspension, 50° C. for 30 min): slightly improved the solubility
qualitative solubility ([1]; methanol): slightly soluble
qualitative solubility ([1]; most of the tested solvents (ethanol, water, 1,4-dioxane, acetonitrile, TBME, heptane, ethylacetate, THF), approximately 3 mg/mL): insoluble
Water solubility [2]: practically insoluble
solubility at 24 h ([2]; water, thermodynamic from solid): < 100 µg/mL
Polymorphism [3]: Yes
chemical stability in solution ([4]; 50° C.): stable
chemical stability in solution ([4]; 80° C.): some chemical degradation was observed
Compound: NC(=NCc1ccccc1)NC(=O)c1nc(Cl)c(N)nc1N [Benzamil free base, 3,5-diamino-N—(N′-benzylcarbamimidoyl)-6-chloropyrazine-2-carboxamide]
